Drawing on patent US7256187B2, “Rifamycin C-11 oxime derivatives effective against drug-resistant microbes” (Cumbre Pharmaceuticals Inc., priority 2004, dated 2007), this text covers MIC for 5 compounds.

In brackets after ≈: the same amount, converted by molar mass.

What all share (assay type): cell-based
The subject of assay [1] is Streptococcus pyogenes ATCC19615. Description: MIC, microbroth dilution. Particulars: Streptococcus pyogenes ATCC19615, rifS; read-out: Antimicrobial activity (MIC).
The test system of assay [2] is Staphylococcus aureus ATCC29213. The assay can be described thus: MIC, microbroth dilution. Particulars: Staphylococcus aureus ATCC29213, rifS; read-out: Antimicrobial activity (MIC).
For assay [3], the system named is Mycobacterium smegmatis ATCC700084. Description: MIC, microbroth dilution. Particulars: Mycolicibacterium smegmatis; Mycobacterium smegmatis ATCC700084, rifS; read-out: Antimicrobial activity (MIC).
The subject of assay [4] is Haemophilus influenzae ATCC10211. Description: MIC, microbroth dilution. Particulars: Haemophilus influenzae ATCC10211, rifS; read-out: Antimicrobial activity (MIC). A general note: Dilution methods test growth across graded concentrations, often in twofold steps.
In assay [5] the test system is Staphylococcus epidermidis ATCC12228. The assay can be described thus: MIC, microbroth dilution. Particulars: Staphylococcus epidermidis ATCC12228, rifS; read-out: Antimicrobial activity (MIC).
The subject of assay [6] is Enterococcus faecalis ATCC29212. Description: MIC, microbroth dilution. As to conditions: Enterococcus faecalis ATCC29212, rifS; read-out: Antimicrobial activity (MIC).
The test system of assay [7] is Staphylococcus aureus ATCC29213 rpoB^H418Y. The assay can be described thus: microbe, parasite or virus in culture. Particulars: Staphylococcus aureus ATCC29213 rpoB^H418Y, rifR; read-out: Antimicrobial activity (MIC). The method, then:
(§1) Representative compounds were assayed for antimicrobial activity as follows: Minimum Inhibitory Concentrations (“MICs”) were determined by the microbroth dilution method as per NCCLS guidelines (National Committee for Clinical Laboratory Standards. 2000. Methods for dilution antimicrobial susceptibility tests for bacteria that grow aerobically, 5th ed. M7-A5. National Committee for Clinical Laboratory Standards, Wayne, Pa.), except that all growth incubations were conducted at 37° C. Bacterial cultures were tested in the following bacteriological media: S. aureus, S. epidermidis, and E. coli in Cation-Adjusted Mueller-Hinton Broth, S. pneumoniae in THY Broth supplemented with 1 mg/mL catalase under 5% CO2 atmosphere, S. pyogenes in THY Broth, E. faecalis in BHI Broth, H. influenzae in BHI Broth supplemented with 0.75 μL of 1 mg/mL NAD and 150 μL of 1 mg/ml hematin per 5 mL, and M. smegmatis in Middlebrook Broth plus ADC Enrichment.
(§2) S. aureus ATCC 29213 RpoB^H418Y is a rifampin-resistant strain with a mutation in the RpoB gene of RNA polymerase. […] S. aureus EN1252a gyrA^S84L grlA^S80F is a quinolone-resistant strain due to double gene mutations of DNA gyrase and topoisomerase IV.

Assay [8] concerns Staphylococcus aureus ATCC29213 rpoB^D417Y. Description: microbe, parasite or virus in culture. As to conditions: Staphylococcus aureus ATCC29213 rpoB^D417Y, rifR; read-out: Antimicrobial activity (MIC). The method, then:
as §1, §2

Assay [9] relates to Staphylococcus aureus EN1252a gyrA^S84L grlA^S80F. Description: microbe, parasite or virus in culture. As to conditions: Staphylococcus aureus EN1252a gyrA^S84L grlA^S80F, cipR; read-out: Antimicrobial activity (MIC). On the procedure: as §1, §2
Assay [10] deals with Escherichia coli ATCC25922. The assay can be described thus: MIC, microbroth dilution. As to conditions: Escherichia coli ATCC25922, rifS; read-out: Antimicrobial activity (MIC).
Assay [11] concerns Streptococcus pneumoniae ATCC6303. The assay can be described thus: MIC, microbroth dilution. As to conditions: Streptococcus pneumoniae ATCC6303, rifS; read-out: Antimicrobial activity (MIC).

Consider `COc1c(N2CCN(/N=C/c3c4c(O)c5c(O)c(C)c6c(c5c3O)/C(=N/O)[C@@](C)(O/C=C/[C@H](OC)[C@@H](C)[C@@H](OC(C)=O)[C@H](C)[C@H](O)[C@H](C)[C@@H](O)[C@@H](C)/C=C/C=C(/C)C(=O)N4)O6)C(C)C2)c(F)cc2c(=O)c(C(=O)O)cn(C3CC3)c12` (mixture of isomers) [Example 40, (R/S)-3-[4-(3-Carboxy-1-cyclopropyl-6-fluoro-8-methoxy-4-oxo-1,4-dihydroquinolin-7-yl)-2-methyl-piperazin-1-yl-aminomethylenyl]-11-deoxy-11-hydroxyiminorifamycin SV], for which the MIC in assay [1] fell in the range of 0.0005 to 0.063 µg/mL (≈ 0.000449 to 0.0566 µM); in [2], 0.004 to 0.5 µg/mL (≈ 0.00359 to 0.449 µM); in assay [3], 0.5 to 64 µg/mL (≈ 0.449 to 57.5 µM); in assay [4], 0.03 to 2 µg/mL (≈ 0.0269 to 1.8 µM); in assay [5], 0.0005 to 0.063 µg/mL (≈ 0.000449 to 0.0566 µM); in assay [6] it was 2 to 32 µg/mL (≈ 1.8 to 28.7 µM). For the same compound, the MIC in assay [7] fell in the range of 0.125 to 16 µg/mL (≈ 0.112 to 14.4 µM); in assay [8] it was 0.25 to 32 µg/mL (≈ 0.225 to 28.7 µM); in [9] it was 0.004 to 0.5 µg/mL (≈ 0.00359 to 0.449 µM); in assay [10], 0.125 to 8 µg/mL (≈ 0.112 to 7.19 µM); in [11], 0.0002 to 0.125 µg/mL (≈ 0.00018 to 0.112 µM).

Regarding `CO[C@H]1/C=C/O[C@@]2(C)Oc3c(C)c(O)c4c(c3/C2=N/O)/C(=N/O)C=C(NC(=O)/C(C)=C\C=C\[C@H](C)[C@H](O)[C@@H](C)[C@@H](O)[C@@H](C)[C@H](OC(C)=O)[C@@H]1C)C4=O` [Example 4, 4, 11-Dideoxy-4,11-dihydroxyiminorifamycin S], the MIC in assay [1] was in the range of 0.0005 to 0.063 µg/mL (≈ 0.000689 to 0.0868 µM); in assay [2], 0.004 to 0.5 µg/mL (≈ 0.00551 to 0.689 µM); in assay [3] it was 0.5 to 64 µg/mL (≈ 0.689 to 88.2 µM); in [4], 0.03 to 2 µg/mL (≈ 0.0413 to 2.76 µM); in [5] it was 0.0005 to 0.063 µg/mL (≈ 0.000689 to 0.0868 µM); in assay [6], 2 to 32 µg/mL (≈ 2.76 to 44.1 µM). The MIC in assay [7] is 0.125 to 16 µg/mL (≈ 0.172 to 22 µM); in assay [8], 0.25 to 32 µg/mL (≈ 0.344 to 44.1 µM); in assay [9], 0.004 to 0.5 µg/mL (≈ 0.00551 to 0.689 µM); in assay [10], 0.125 to 8 µg/mL (≈ 0.172 to 11 µM); in assay [11], 0.0002 to 0.125 µg/mL (≈ 0.000276 to 0.172 µM).

Regarding `CO/N=C1/c2c3c(C)c(O)c4c2/C(=N/OC)C=C(NC(=O)/C(C)=C\C=C\[C@H](C)[C@H](O)[C@@H](C)[C@@H](O)[C@@H](C)[C@H](OC(C)=O)[C@H](C)[C@@H](OC)/C=C/O[C@@]1(C)O3)C4=O` [Example 5, 4, 11-Dideoxy-4, 11-dimethoxyiminorifamycin S], the MIC in [1] was 0.0005 to 0.063 µg/mL (≈ 0.000663 to 0.0836 µM); in [2], 0.004 to 0.5 µg/mL (≈ 0.00531 to 0.663 µM); in assay [3] it was 0.5 to 64 µg/mL (≈ 0.663 to 84.9 µM); in [4], 0.03 to 2 µg/mL (≈ 0.0398 to 2.65 µM); in assay [5], 0.0005 to 0.063 µg/mL (≈ 0.000663 to 0.0836 µM); in assay [6], 2 to 32 µg/mL (≈ 2.65 to 42.4 µM). Also, the MIC in assay [7] fell in the range of 0.125 to 16 µg/mL (≈ 0.166 to 21.2 µM); in assay [8], 0.25 to 32 µg/mL (≈ 0.332 to 42.4 µM); in assay [9], 0.004 to 0.5 µg/mL (≈ 0.00531 to 0.663 µM); in [10], 0.125 to 8 µg/mL (≈ 0.166 to 10.6 µM); in [11], 0.0002 to 0.125 µg/mL (≈ 0.000265 to 0.166 µM).

Consider `CO[C@H]1/C=C/O[C@@]2(C)Oc3c(C)c(O)c4c(c3/C2=N/O)C(=O)C=C(NC(=O)/C(C)=C\C=C\[C@H](C)[C@H](O)[C@@H](C)[C@@H](O)[C@@H](C)[C@H](OC(C)=O)[C@@H]1C)C4=O` [Example 7, 11-Deoxy-11-hydroxyiminorifamycin S], for which the MIC in assay [1] lay in the range of 0.0005 to 0.063 µg/mL (≈ 0.000703 to 0.0886 µM); in [2] it was 0.004 to 0.5 µg/mL (≈ 0.00563 to 0.703 µM); in [3], 0.5 to 64 µg/mL (≈ 0.703 to 90 µM); in assay [4] it was 0.03 to 2 µg/mL (≈ 0.0422 to 2.81 µM); in assay [5] it was 0.0005 to 0.063 µg/mL (≈ 0.000703 to 0.0886 µM); in assay [6], 2 to 32 µg/mL (≈ 2.81 to 45 µM). In addition, the MIC in assay [7] lay within 0.125 to 16 µg/mL (≈ 0.176 to 22.5 µM); in [8], 0.25 to 32 µg/mL (≈ 0.352 to 45 µM); in [9] it was 0.004 to 0.5 µg/mL (≈ 0.00563 to 0.703 µM); in assay [10], 0.125 to 8 µg/mL (≈ 0.176 to 11.3 µM); in [11] it was 0.0002 to 0.125 µg/mL (≈ 0.000281 to 0.176 µM).

Take `CO[C@H]1/C=C/O[C@@]2(C)Oc3c(C)c(O)c4c(c3/C2=N/OC(=O)c2ccncc2)C(=O)C=C(NC(=O)/C(C)=C\C=C\[C@H](C)[C@H](O)[C@@H](C)[C@@H](O)[C@@H](C)[C@H](OC(C)=O)[C@@H]1C)C4=O` [Example 8, 11-Deoxy-11-(4-pyridylcarboxy)iminorifamycin S]: the MIC in assay [1] was 0.0005 to 0.063 µg/mL (≈ 0.000613 to 0.0772 µM); in assay [2] it was 0.004 to 0.5 µg/mL (≈ 0.0049 to 0.613 µM); in [3], 0.5 to 64 µg/mL (≈ 0.613 to 78.4 µM); in assay [4], 0.03 to 2 µg/mL (≈ 0.0368 to 2.45 µM); in assay [5] it was 0.0005 to 0.063 µg/mL (≈ 0.000613 to 0.0772 µM); in assay [6], 2 to 32 µg/mL (≈ 2.45 to 39.2 µM). Besides, the MIC in [7] lay in the range of 0.125 to 16 µg/mL (≈ 0.153 to 19.6 µM); in assay [8], 0.25 to 32 µg/mL (≈ 0.306 to 39.2 µM); in [9], 0.004 to 0.5 µg/mL (≈ 0.0049 to 0.613 µM); in [10], 0.125 to 8 µg/mL (≈ 0.153 to 9.81 µM); in assay [11], 0.0002 to 0.125 µg/mL (≈ 0.000245 to 0.153 µM).
